# According to paper PMC6383678 (Biochimica et biophysica acta. Biomembranes, 2019):
# Target: A2aR (hA2aR) (Homo sapiens, UniProt P29274)
# Assay: flow cytometry, fluorescent agonist equilibrium binding to HEK293-A2aR cells
# Format: cell-based
# A2aR (hA2aR), sequence (P29274 whole entry): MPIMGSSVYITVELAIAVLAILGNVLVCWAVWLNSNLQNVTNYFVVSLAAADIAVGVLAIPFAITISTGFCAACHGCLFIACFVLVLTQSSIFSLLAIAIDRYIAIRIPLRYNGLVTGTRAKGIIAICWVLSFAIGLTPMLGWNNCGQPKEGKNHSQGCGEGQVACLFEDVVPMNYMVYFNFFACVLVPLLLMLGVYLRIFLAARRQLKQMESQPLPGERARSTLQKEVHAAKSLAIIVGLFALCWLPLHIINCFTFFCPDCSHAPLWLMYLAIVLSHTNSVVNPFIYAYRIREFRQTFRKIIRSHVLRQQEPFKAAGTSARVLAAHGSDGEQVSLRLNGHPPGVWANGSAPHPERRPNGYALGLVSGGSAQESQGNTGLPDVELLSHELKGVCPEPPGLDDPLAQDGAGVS
smiles,measurement,value
CCNC(=O)[C@H]1O[C@@H](n2cnc3c(N)nc(NCCc4ccc(CCC(=O)NCCNC(=S)Nc5ccc6c(c5)C(=O)OC65c6ccc(O)cc6Oc6cc(O)ccc65)cc4)nc32)[C@H](O)[C@@H]1O [FITC-APEC],equilibrium ligand binding,equilibrium ligand binding of the fluorescent agonist APEC-FITC was unchanged following cholesterol depletion
